Results on 34 compounds are retold here after US11427558B1, “Indazoles and azaindazoles as LRRK2 inhibitors” (ESCAPE Bio, Inc., priority 2019, dated 2022).

Test [1] addresses Recombinant G2019S-LRRK2 protein (Homo sapiens (Human), UniProt Q5S007, G2019S). Description: LRRK2 kinase activity, LanthaScreen TR-FRET assay (G2019S). The test is classed as biochemical. The conditions noted are these: LRRKtide 400 nM, 25 μM ATP, 60 min. The gist of the method:
(§1)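 Recombinant human wild-type or G2019S LRRK2 phosphorylated fluorescein-labelled LRRKtide (ERM-based) with ATP and serially diluted compound for 60 min at room temperature.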

Test [2] addresses Recombinant wild type LRRK2 protein (Homo sapiens (Human), UniProt Q5S007). The test can be described thus: LRRK2 kinase activity, LanthaScreen TR-FRET assay (wild type). The test is classed as biochemical. Conditions: LRRKtide 400 nM, 25 μM ATP, 60 min; read-out: LRRK2 WT IC50. The gist of the method:
as §1

The structures appear in SMILES notation. Bounds are passed on as bounds.

Sequence of Recombinant wild type LRRK2 protein (Q5S007 whole entry): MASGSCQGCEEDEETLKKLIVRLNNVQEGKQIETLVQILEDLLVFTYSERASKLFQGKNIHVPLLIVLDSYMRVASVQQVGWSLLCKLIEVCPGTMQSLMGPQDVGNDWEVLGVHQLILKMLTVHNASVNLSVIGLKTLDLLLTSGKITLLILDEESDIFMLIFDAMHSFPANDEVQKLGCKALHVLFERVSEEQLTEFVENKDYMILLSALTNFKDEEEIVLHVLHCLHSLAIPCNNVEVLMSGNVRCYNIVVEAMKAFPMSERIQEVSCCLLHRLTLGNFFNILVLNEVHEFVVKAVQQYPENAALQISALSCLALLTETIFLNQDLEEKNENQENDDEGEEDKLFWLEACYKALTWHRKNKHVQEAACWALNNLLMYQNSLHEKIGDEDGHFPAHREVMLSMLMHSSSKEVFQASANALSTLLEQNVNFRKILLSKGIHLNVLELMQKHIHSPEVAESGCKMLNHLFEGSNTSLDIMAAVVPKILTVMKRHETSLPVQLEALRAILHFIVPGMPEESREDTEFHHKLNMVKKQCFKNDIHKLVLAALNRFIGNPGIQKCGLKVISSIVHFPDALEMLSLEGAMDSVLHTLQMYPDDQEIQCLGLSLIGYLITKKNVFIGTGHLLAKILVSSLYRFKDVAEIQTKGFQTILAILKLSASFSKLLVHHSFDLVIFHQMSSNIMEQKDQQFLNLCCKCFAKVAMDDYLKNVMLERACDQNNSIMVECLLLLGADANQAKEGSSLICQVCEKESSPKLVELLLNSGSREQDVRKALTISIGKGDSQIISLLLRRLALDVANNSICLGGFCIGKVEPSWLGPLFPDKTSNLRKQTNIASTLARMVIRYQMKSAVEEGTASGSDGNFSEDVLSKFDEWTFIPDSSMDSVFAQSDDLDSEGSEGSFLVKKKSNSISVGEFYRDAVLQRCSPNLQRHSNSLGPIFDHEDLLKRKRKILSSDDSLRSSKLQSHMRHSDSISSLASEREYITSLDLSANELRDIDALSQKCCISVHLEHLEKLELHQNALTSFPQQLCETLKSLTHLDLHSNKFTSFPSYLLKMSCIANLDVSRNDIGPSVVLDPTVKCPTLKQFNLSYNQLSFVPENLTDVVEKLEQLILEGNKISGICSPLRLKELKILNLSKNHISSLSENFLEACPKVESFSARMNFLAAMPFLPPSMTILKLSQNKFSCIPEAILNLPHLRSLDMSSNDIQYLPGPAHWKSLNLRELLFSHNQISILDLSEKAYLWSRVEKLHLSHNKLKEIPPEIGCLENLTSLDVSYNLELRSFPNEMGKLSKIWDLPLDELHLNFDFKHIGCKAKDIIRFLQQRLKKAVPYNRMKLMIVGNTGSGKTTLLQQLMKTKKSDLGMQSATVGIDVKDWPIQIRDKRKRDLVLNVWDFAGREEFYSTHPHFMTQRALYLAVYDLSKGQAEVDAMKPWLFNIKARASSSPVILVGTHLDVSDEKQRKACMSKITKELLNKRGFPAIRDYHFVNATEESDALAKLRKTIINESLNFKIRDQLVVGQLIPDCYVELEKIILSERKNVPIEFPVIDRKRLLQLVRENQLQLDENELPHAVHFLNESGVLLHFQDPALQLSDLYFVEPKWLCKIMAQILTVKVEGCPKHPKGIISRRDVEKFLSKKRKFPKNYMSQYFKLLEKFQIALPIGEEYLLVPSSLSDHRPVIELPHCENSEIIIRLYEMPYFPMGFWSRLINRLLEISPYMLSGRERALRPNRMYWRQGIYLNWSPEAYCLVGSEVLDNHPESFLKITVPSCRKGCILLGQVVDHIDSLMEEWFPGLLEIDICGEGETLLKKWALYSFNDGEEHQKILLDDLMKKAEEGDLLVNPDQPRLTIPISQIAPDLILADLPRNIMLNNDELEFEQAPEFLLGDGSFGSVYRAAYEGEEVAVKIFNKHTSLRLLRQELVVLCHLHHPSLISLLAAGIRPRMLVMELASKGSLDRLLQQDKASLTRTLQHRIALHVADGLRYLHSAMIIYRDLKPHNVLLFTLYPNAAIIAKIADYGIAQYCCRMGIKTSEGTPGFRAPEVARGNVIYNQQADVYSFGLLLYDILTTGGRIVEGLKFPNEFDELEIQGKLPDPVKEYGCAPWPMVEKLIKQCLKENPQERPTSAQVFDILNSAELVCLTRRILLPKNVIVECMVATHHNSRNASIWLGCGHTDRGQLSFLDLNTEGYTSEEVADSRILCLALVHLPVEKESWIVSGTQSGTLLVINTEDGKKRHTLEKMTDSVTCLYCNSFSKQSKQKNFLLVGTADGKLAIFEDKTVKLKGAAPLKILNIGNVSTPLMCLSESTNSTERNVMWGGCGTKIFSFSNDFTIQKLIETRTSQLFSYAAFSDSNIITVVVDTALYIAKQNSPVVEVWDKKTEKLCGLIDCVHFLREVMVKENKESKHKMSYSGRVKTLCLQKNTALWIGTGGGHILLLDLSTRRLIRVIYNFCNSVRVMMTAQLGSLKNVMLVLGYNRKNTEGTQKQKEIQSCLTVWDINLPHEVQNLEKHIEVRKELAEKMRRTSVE
Sequence of Recombinant G2019S-LRRK2 protein (Q5S007 whole entry G2019S): as the sequence (Q5S007 whole entry) above, with G2019S counted along it

As for `Cc1c(C#N)cnc(C(=O)Nc2ccc3[nH]nc(C=C4COC4)c3c2)c1C` [Example 263, 5-Cyano-3,4-dimethyl-N-(3-(oxetan-3-ylidenemethyl)-1H-indazol-5-yl)picolinamide], the IC50 lay in the range of 100 to 1000 nM in test [1] and 1000 to 10000 nM in test [2].
The matching figures for `COCc1n[nH]c2ccc(NC(=O)c3ncc(C#N)c(C)c3C)cc12` [Example 264, 5-Cyano-N-(3-(methoxymethyl)-1H-indazol-5-yl)-3,4-dimethylpicolinamide]: 100 to 1000 nM and 1000 to 10000 nM.
On the same counts, the results for `Cc1c(C#N)cnc(C(=O)Nc2ccc3[nH]nc(C4CC4C(F)(F)F)c3c2)c1C` (centres unmarked) [Example 265, 5-Cyano-3,4-dimethyl-N-(3-(2-(trifluoromethyl)cyclopropyl)-1H-indazol-5-yl)picolinamide] are 100 to 1000 nM and 1000 to 10000 nM.
In the case of `Cc1c(C#N)cnc(C(=O)Nc2ccc3[nH]nc(/C=C/C(F)(F)F)c3c2)c1C` [Example 266, (E)-5-Cyano-3,4-dimethyl-N-(3-(3,3,3-trifluoroprop-1-en-1-yl)-1H-indazol-5-yl)picolinamide], the values for the IC50 in test [1] and in test [2] were under 100 nM and 100 to 1000 nM, respectively.
The matching figures for `C=C(C)c1n[nH]c2ccc(NC(=O)c3ncc(C#N)c(C)c3C)cc12` [Example 267, 5-Cyano-3,4-dimethyl-N-(3-(prop-1-en-2-yl)-1H-indazol-5-yl)picolinamide]: under 100 nM and 100 to 1000 nM.
The matching figures for `Cc1c(C#N)cnc(C(=O)Nc2ccc3[nH]nc(C4(C)CC4)c3c2)c1C` [Example 268, 5-Cyano-3,4-dimethyl-N-(3-(1-methylcyclopropyl)-1H-indazol-5-yl)picolinamide]: 100 to 1000 nM and 1000 to 10000 nM.
As to `COC(C)c1n[nH]c2ccc(NC(=O)c3ncc(C#N)c(C)c3C)cc12` (centres unmarked) [Example 269, 5-Cyano-N-(3-(1-methoxyethyl)-1H-indazol-5-yl)-3,4-dimethylpicolinamide], the IC50 in test [1] is 1000 to 10000 nM; in test [2], over 10000 nM.
The matching figures for `Cc1c(C(=O)Nc2ccc3[nH]nc(C(C)C)c3c2)nc(Cl)c(C#N)c1C` [Example 270, 6-Chloro-5-cyano-N-(3-isopropyl-1H-indazol-5-yl)-3,4-dimethylpicolinamide]: under 100 nM and under 100 nM.
On to `CCc1n[nH]c2ccc(NC(=O)c3nc(Cl)c(C#N)c(C)c3C)cc12` [Example 271, 6-Chloro-5-cyano-N-(3-ethyl-1H-indazol-5-yl)-3,4-dimethylpicolinamide], for which the IC50 in test [1] and in test [2] was under 100 nM in each case.
As for `Cc1cc(C#N)cnc1C(=O)Nc1ccc2[nH]nc(-c3ccnnc3)c2c1` [Example 272, 5-Cyano-3-methyl-N-(3-(pyridazin-4-yl)-1H-indazol-5-yl)picolinamide], the IC50 is under 100 nM in test [1] and 100 to 1000 nM in test [2].
On the same counts, the results for `Cc1cc(-c2n[nH]c3ccc(NC(=O)c4ncc(C#N)cc4C)cc23)cnn1` [Example 273, 5-Cyano-3-methyl-N-(3-(6-methylpyridazin-4-yl)-1H-indazol-5-yl)picolinamide] are under 100 nM and 100 to 1000 nM.
As to `C=C(C)c1c(C#N)cccc1C(=O)Nc1ccc2[nH]nc(C)c2c1` [Example 274, 3-Cyano-N-(3-methyl-1H-indazol-5-yl)-2-(prop-1-en-2-yl)benzamide], the values for the IC50 in test [1] and in test [2] were under 100 nM and 1000 to 10000 nM, respectively.
Regarding `Cc1nc(C(=O)Nc2ccc3[nH]nc(C)c3c2)c(Cl)c(C)c1C#N` [Example 275, 3-Chloro-5-cyano-4,6-dimethyl-N-(3-methyl-1H-indazol-5-yl)picolinamide], the IC50 is under 100 nM in test [1] and 100 to 1000 nM in test [2].
On the same counts, the results for `Cc1c(C#N)cnc(C(=O)Nc2ccc3[nH]nc(C=C4CCC4)c3c2)c1C` [Example 276, 5-Cyano-N-(3-(cyclobutylidenemethyl)-1H-indazol-5-yl)-3,4-dimethylpicolinamide] are under 100 nM and 100 to 1000 nM.
`Cc1c(C#N)cnc(C(=O)Nc2ccc3[nH]nc(-c4ccnc(N5CCOCC5)c4)c3c2)c1C` [Example 277, 5-Cyano-3,4-dimethyl-N-(3-(2-morpholinopyridin-4-yl)-1H-indazol-5-yl)picolinamide]: the IC50 in test [1] and in test [2] was under 100 nM each time.
Consider `Cc1c(C(=O)Nc2ccc3[nH]nc(-c4ccnc(N5CCOCC5)c4)c3c2)nc(Cl)c(C#N)c1C` [Example 278, 6-Chloro-5-cyano-3,4-dimethyl-N-(3-(2-morpholinopyridin-4-yl)-1H-indazol-5-yl)picolinamide], for which the IC50 in test [1] and in test [2] was under 100 nM throughout.
As to `CCc1cc(-c2n[nH]c3ccc(NC(=O)c4ncc(C#N)c(C)c4C)cc23)ccn1` [Example 279, 5-Cyano-N-(3-(2-ethylpyridin-4-yl)-1H-indazol-5-yl)-3,4-dimethylpicolinamide], the IC50 in test [1] and in test [2] was under 100 nM in each case.
As to `Cc1c(C#N)cnc(C(=O)Nc2ccc3[nH]nc(-c4cccn(C)c4=O)c3c2)c1C` [Example 280, 5-Cyano-3,4-dimethyl-N-(3-(1-methyl-2-oxo-1,2-dihydropyridin-3-yl)-1H-indazol-5-yl)picolinamide], the IC50 in test [1] and in test [2] was 1000 to 10000 nM each time.
Take `Cc1c(C#N)cnc(C(=O)Nc2ccc3[nH]nc(/C=C/c4ccncc4)c3c2)c1C` [Example 281, (E)-5-Cyano-3,4-dimethyl-N-(3-(2-(pyridin-4-yl)vinyl)-1H-indazol-5-yl)picolinamide]: the half-maximal inhibitory concentration (IC50) in test [1] and in test [2] was under 100 nM each time.
Consider `C/C=C/c1n[nH]c2ccc(NC(=O)c3nc(Cl)c(C#N)c(C)c3C)cc12` [Example 282, (E)-6-chloro-5-cyano-3,4-dimethyl-N-(3-(prop-1-en-1-yl)-1H-indazol-5-yl)picolinamide], for which the IC50 in test [1] and in test [2] was under 100 nM each time.
Turning to `Cc1nc(C(=O)Nc2ccc3[nH]nc(C4CC4)c3c2)c(Cl)c(C)c1C#N` [Example 283, 3-chloro-5-cyano-N-(3-cyclopropyl-1H-indazol-5-yl)-4,6-dimethylpicolinamide], the IC50 is under 100 nM in test [1] and 100 to 1000 nM in test [2].
The matching figures for `CCc1n[nH]c2ccc(NC(=O)c3ncc(C#N)c(C(F)(F)F)c3C)cc12` [Example 284, 5-Cyano-N-(3-ethyl-1H-indazol-5-yl)-3-methyl-4-(trifluoromethyl)picolinamide]: under 100 nM and 1000 to 10000 nM.
On the same counts, the results for `COc1n[nH]c2ccc(NC(=O)c3ncc(C#N)c(C(F)(F)F)c3C)cc12` [Example 285, 5-Cyano-N-(3-methoxy-1H-indazol-5-yl)-3-methyl-4-(trifluoromethyl)picolinamide] are under 100 nM and 1000 to 10000 nM.
On the same counts, the results for `Cc1c(C(=O)Nc2ccc3[nH]nc(C4CC4)c3c2)ncc(C#N)c1C(F)(F)F` [Example 286, 5-Cyano-N-(3-cyclopropyl-1H-indazol-5-yl)-3-methyl-4-(trifluoromethyl)picolinamide] are under 100 nM and 1000 to 10000 nM.
Regarding `COc1n[nH]c2ccc(NC(=O)c3nc(C)c(C#N)c(C)c3C)cc12` [Example 287, 5-Cyano-N-(3-methoxy-1H-indazol-5-yl)-3,4,6-trimethylpicolinamide], the IC50 was under 100 nM in test [1] and 100 to 1000 nM in test [2].
Take `Cc1cc(C#N)c(C(F)(F)F)nc1C(=O)Nc1ccc2[nH]nc(-c3cnco3)c2c1` [Example 288, 5-Cyano-3-methyl-N-(3-(oxazol-5-yl)-1H-indazol-5-yl)-6-(trifluoromethyl)picolinamide]: the IC50 in test [1] and in test [2] was under 100 nM in each case.
Consider `Cc1c(C(=O)Nc2ccc3[nH]nc(-c4cnco4)c3c2)ncc(C#N)c1C(F)(F)F` [Example 289, 5-Cyano-3-methyl-N-(3-(oxazol-5-yl)-1H-indazol-5-yl)-4-(trifluoromethyl)picolinamide], for which the IC50 in test [1] and in test [2] was under 100 nM each time.
Take `Cc1c(C(=O)Nc2ccc3[nH]nc(C#N)c3c2)nc(Cl)c(C#N)c1C` [Example 290, 6-Chloro-5-cyano-N-(3-cyano-1H-indazol-5-yl)-3,4-dimethylpicolinamide]: the IC50 in test [1] and in test [2] was under 100 nM each time.
Consider `Cc1c(C(=O)Nc2ccc3[nH]nc(C(F)F)c3c2)nc(Cl)c(C#N)c1C` [Example 291, 6-Chloro-5-cyano-N-(3-(difluoromethyl)-1H-indazol-5-yl)-3,4-dimethylpicolinamide], for which the IC50 in test [1] and in test [2] was under 100 nM throughout.
`Cc1c(C#N)cnc(C(=O)Nc2ccc3[nH]nc(C(F)F)c3c2)c1C` [Example 292, 5-Cyano-N-(3-(difluoromethyl)-1H-indazol-5-yl)-3,4-dimethylpicolinamide]: the figures for the IC50 in test [1] and in test [2] were 100 to 1000 nM and 1000 to 10000 nM, respectively.
On the same counts, the results for `Cc1c(C(=O)Nc2ccc3[nH]nc(C(F)(F)F)c3c2)nc(Cl)c(C#N)c1C` [Example 293, 6-Chloro-5-cyano-3,4-dimethyl-N-(3-(trifluoromethyl)-1H-indazol-5-yl)picolinamide] are under 100 nM and under 100 nM.
The matching figures for `Cc1n[nH]c2ccc(NC(=O)c3ncc(C#N)cc3C(C)C)cc12` [Example 294, 5-Cyano-3-isopropyl-N-(3-methyl-1H-indazol-5-yl)picolinamide]: 100 to 1000 nM and 1000 to 10000 nM.
On the same counts, the results for `Cc1n[nH]c2ccc(NC(=O)c3cccc(C#N)c3C(C)C)cc12` [Example 295, 3-Cyano-2-isopropyl-N-(3-methyl-1H-indazol-5-yl)benzamide] are under 100 nM and 100 to 1000 nM.
In the case of `Cc1c(C(=O)Nc2ccc3[nH]nc(S(C)(=O)=O)c3c2)nc(Cl)c(C#N)c1C` [Example 296, 6-Chloro-5-cyano-3,4-dimethyl-N-(3-(methylsulfonyl)-1H-indazol-5-yl)picolinamide], the values for the IC50 in test [1] and in test [2] were under 100 nM and 100 to 1000 nM, respectively.

Usually IC50 stands for the concentration that inhibits the measured activity by half.
